Patent US5507949A, “Supported liquid membrane and separation process employing same” (Monsanto Company, priority 1993, dated 1996)
Where two headings read alike, the source gives them in different places. Values belong to the compound of their own block, whether it stands above or below them.

Experiments:
[1] = Source text: (§1) A flat sheet microporous polypropylene membrane (Celgard 2400, 38% porosity, 0.05 micron average pore size, 25 micron thick) was wet with polypropylene glycol (PPG) MW 4000 obtained from the Dow Chemical Company by putting a few drops of PPG on the membrane sheet and spreading it out. […] The excess PPG was wiped off and the membrane with immobilized PPG was ready for use. […] The same wetting procedure can be used for hollow fiber membranes. In a module form, the fibers can be wet by pumping PPG slowly through the lumens of the fibers. The excess PPG left in the fibers can thereafter be removed by either blowing air or passing water through the tube side of the fibers.
A flat sheet immobilized liquid membrane prepared according to Example 1 was placed between the two compartments of a cell. Surface area of the membrane was 8 cm^2. One cell compartment contained an aqueous waste solution containing para-nitrophenol (PNP) at a concentration of 4000 to 5000 mg/L and 20 wt % KCl. The other compartment contained 0.1N NaOH as an aqueous strip solution. Both solutions were circulated by pumps. Total volume of liquid on each side of the membrane was 100 ml. The system was at room temperature. PNP levels in both compartments were measured periodically using a spectrophotometric method.

[2] = known octanol/water system; cited from earlier work
[3] = Partition coefficient between polyalkylene glycol (PPG) and water
Source text: *Kp = Acid concentration in PPG .div. Acid Concentration in H2 O at […]

Remark: listed apart in the source
[4] = Stability/integrity of supported liquid membrane; format: physicochemical
Source text: as §1
The process of Example 2 was repeated but with octanol, a typical organic solvent with high affinity for p-nitrophenol, as the liquid membrane.

[5] = Transport across hollow fiber supported liquid membrane (Examples 5 and 6); format: physicochemical; settings: Celgard X20 400 hollow fibers; after 3 hours (Example 5)
Source text: Celgard X20 400 hollow fibers (40% porosity, 0.065 micron pore size, internal diameter 400 microns, outer diameter 460 microns) were potted into a module containing 54 fibers that were 18 cm long. The total membrane area was 120 cm^2. PPG MW 4000 was pumped through the lumens of the fibers to wet them. Water was then pumped through to remove excess PPG. The module having PPG immobilized in the fiber walls was then used to remove PNP from an aqueous solution containing approximately 4000 to 5000 mg/L PNP and 20 wt % KCl. The aqueous stripping solution was 0.1N NaOH. The set up was similar to that used in Example 2. The initial rate of PNP transport across the hollow fiber membrane was about 4 mg/hr-cm^2 membrane area. After 3 hours of operation PNP concentration in the stripping side went up to 4400 mg/L and that in the feed side dropped to 45 mg/L.
Using a procedure similar to that of Example 5 but using polysulfone hollow fibers (Permea, St. Louis) as the membrane support, selective extraction of PNP from an aqueous waste solution was examined. Ultrafiltration polysulfone hollow fibers (18 cm long, MW cutoff 160,000, OD 1150 microns, ID 870 microns) were potted into a module containing 10 fibers that were 17.6 cm long. The effective membrane area was about 48 cm^2. The initial rate of transport was about 1 mg PNP/hr-cm^2 membrane area.

[6] = 65° C. (Example 26)
Experimental: Celgard 2500 (flat sheet microporous polypropylene membrane) was wetted with PPG-4000 and sandwiched between two compartments of a membrane cell as described in Example 2. One compartment was filled with a aqueous solution containing 5000 mg/L butanol. Air was swept in the other compartment to remove butanol diffusing through the membrane, thus creating driving force for further transport. The system was operated at 65° C.

[7] = 5 wt % acid, 20 wt % KCl, strip 0.1N NaOH, room temperature (Table 1)
[8] = PPG in Celgard 2400, strip 0.1N NaOH, room temperature (Table 3)
[9] = PPG MW about 4000 in CELGARD 2400, 20 wt % NaCl
[10] = Celgard 2402, overnight (Example 4)
[11] = Celgard 2500, overnight (Example 3)
[12] = overnight, feed pH 5.4, 20 wt. % KCl (Example 29)
[13] = 30 wt. % Pluronic L-81 in PPG-4000 (Example 23)

Initial Rate [1, 7]: 1.6 mg/hr-cm^2
Compound: CC(=O)O [Acetic Acid (C2), Acetic Acid]

Compound: C=CC(=O)O [Acrylic Acid]
K Octanol/Water [2]: 1.35
K PPG-4000/Water [3]: 5

Permeability (not told): 42 ×10⁻⁶ cm/s
Compound: CCCC(=O)O [Butyric Acid (C4), Butyric Acid]

Compound: CCCCCC(=O)O [Caproic Acid (C6), Caproic Acid]
initial rate of caproic acid transport relative to PPG membrane ([1]; carbamate-functional liquid membrane drawing 12 (Example 2d)): about the same as with PPF-4000
caproic acid level in waste solution ([1]; carbamate-functional liquid membrane drawing 12, after 23 hours, initial 1800 ppm (Example 2d)): 13 ppm
Permeability [8]: 400 ×10⁻⁶ cm/s
Partition Coeff. (Kp) [3]: 83

Compound: O=CO [Formic Acid (C1), Formic Acid]
Initial Rate [1]: 1.0 mg/hr-cm^2
Permeability [8]: 5.5 ×10⁻⁶ cm/s
Rate (pH 1.6): 1.0
Rate (pH 5): 0.026
Partition Coeff. (Kp) ([3]; acid concentration in PPG ÷ acid concentration in H2O at equilibrium): 0.45

Compound: [Cl-].[K+] [KCl]
chloride concentration on waste side ([1]; Example 2): over 100 g/L
chloride content in caustic strip solution ([1]; Example 2, overnight, measure of KCl transport): 0.049 g/L

Compound: [Cl-].[Na+] [NaCl]
salt passage through liquid membrane [4, 9]: essentially no salt to pass through

Compound: O=[N+]([O-])c1ccc(O)cc1 [PNP, para-nitrophenol]
PNP concentration in feed side [5]: 45 mg/L
PNP concentration in stripping side [5]: 4400 mg/L
PNP concentration in feed side [1, 10]: 10 mg/L
PNP concentration in stripping side [1, 10]: 4900 mg/L
PNP concentration in feed side [1, 11]: 5 mg/L
PNP concentration in stripping side [1, 11]: 4430 mg/L
separation factor for PNP over KCl ([1]; Example 2): at least 2000
PNP concentration difference caustic side vs waste side ([1]; Example 2, overnight): over 1000 times
PNP concentration in caustic side ([1]; Example 2, overnight): about 3800 mg/L
PNP concentration in waste side ([1]; Example 2, overnight, initial 4000 to 5000 mg/L): about 3 mg/L
PNP level in waste solution ([1]; Igepal CO-210 liquid membrane, after 24 hours, initial 4397 ppm (Example 2f)): 10 ppm
ratio of PNP concentration caustic side over waste side ([1]; PBG MW 2000, overnight (Example 20)): about 1300
PNP level in waste solution ([1]; carbamate-functional liquid membrane drawing 12, after 5.5 hours, initial 4300 ppm (Example 2c)): 25 ppm
PNP level in waste solution ([1]; carbamate-functional liquid membrane drawing 12, overnight (Example 2c)): 5 ppm
PNP level in waste solution ([1]; castor oil liquid membrane, after 96 hours, initial 4272 ppm (Example 2e)): 4 ppm
PNP removal from the feed solution [1, 12]: about 99%
PNP ratio (concentration of strip side to feed side) ([1]; polybutylene glycol MW approximately 5000, overnight (Example 21)): 120
PNP level in waste solution ([1]; strip 50 wt. % PEG-200, after about 9 hours, initial 4449 ppm (Example 2b)): 192 ppm
PNP level in waste solution ([1]; strip PEG-200, after about 8 hours, initial 4700 ppm (Example 2a)): 12 ppm
PNP level in waste solution ([1]; strip PEG-200, after two days, initial 4700 ppm (Example 2a)): 0.6 ppm
K PPG-4000/Water [3]: 300

Compound: Oc1ccccc1 [Phenol]
concentration in the feed [1]: about 5 mg/L
concentration in the stripping solution [1]: about 5050 mg/L
K PPG-4000/Water [3]: 150

Initial Rate [1, 7]: 5.4 mg/hr-cm^2
Permeability (not told): 33 ×10⁻⁶ cm/s
Compound: CCC(=O)O [Propionic Acid (C3), Propionic Acid]

Permeability (not told): 160 ×10⁻⁶ cm/s
Partition Coeff. (Kp) [3]: 24.6
Compound: CCCCC(=O)O [Valeric Acid (C5), Valeric Acid]

Compound: N.N.O=S(=O)(O)O [ammonium sulfate]
ammonium sulfate detected in the stripping solution [1]: no ammonium sulfate was detected

Compound: O=C(O)c1ccccc1 [benzoic acid]
benzoic acid passage through membrane ([1]; feed pH 5.4 (Example 29)): virtually blocked by the membrane
remaining in feed / transported ([1]; overnight, feed pH 2.5 (Example 30)): virtually gone from the feed
benzoic acid detected in aqueous strip solution [1, 12]: < 1 % of feed
benzoic acid level in strip solution ([1]; overnight, from hydrolysis of ethyl benzoate (Example 33)): about 420 mg/L

initial rate of butanol removal ([6]; PPG-4000 in Celgard 2500, air sweep): about 7 mg/hr-cm^2
butanol concentration in the aqueous solution ([6]; after about 5 hr, initial 5000 mg/L): about 400 mg/L
Compound: CCCCO [butanol]

Compound: CCOC(=O)c1ccccc1 [ethyl benzoate]
permeability of ethyl benzoate through the membrane ([1]; PPG membrane, feed pH 7.1, strip 0.1N NaOH, 23° C. (Example 33)): about 9×10^-4 cm/sec
ethyl benzoate concentration in the feed side ([1]; overnight, initial 500 mg/L (Example 33)): 1 mg/L

Compound: N#C/C=C/C#N [fumaronitrile]
initial rate of fumaronitrile transport [1]: about 0.5 mg/hr-cm^2

change of initial rate of maleimide transport vs Example 22 [1, 13]: more than doubled
initial rate of maleimide transport [1, 13]: 2.5 mg/hr-cm^2
initial rate of maleimide transport ([1]; PPG-4000, 7,000 mg/L maleimide, 40 wt. % ammonium sulfate (Example 22)): about 1.2 mg/hr-cm^2
Compound: O=C1C=CC(=O)N1 [maleimide]

time to breakdown of immobilized liquid membrane ([4]; octanol liquid membrane in operation (Example 25)): about 10 minutes
Compound: CCCCCCCCO [octanol, reference compound]

Compound: Nc1ccc([N+](=O)[O-])cc1 [p-nitroaniline]
initial rate of PNA transport ([1]; feed pH 9, ~500 mg/L, strip 0.1N nitric acid (Example 8)): about 1.5 mg/hr-cm^2
PNA level in the feed ([1]; overnight (Example 8)): 70 mg/L
PNA level in the stripping solution ([1]; overnight (Example 8)): 450 mg/L

water movement (diffusion) through liquid membrane [4, 9]: very little water movement
Compound: O [water]
